This note sets out measurements from patent publication US10947227B2, “Tricyclic heterocyclic compounds as sting activators” (Incyte Corporation, priority 2018, dated 2021).

This assay relates to IRF3 activation in THP-1 Dual Cells. Description: IRF3 activation assay in THP-1 Dual Cells (QUANTI-Blue readout). The assay is classed as cell-based. To be noted: Homo sapiens, THP1-Dual, 24 h, Table 2, 24 hours incubation. As for the experimental part:
THP-1 Dual Cells (Invivogen) were maintained in RPMI1640 medium with addition of 10% FBS, 100 μg/ml zeocin, 10 μg/ml blasticidin. Cells were added in a 96-well flat bottom assay plate at 100,000 per well in 100 μL complete RPMI medium. Test compounds were prepared by serial dilution in complete RPMI medium and 100 μL test compounds were transferred to each corresponding well. The assay plate was incubated at 37° C., 5% CO2 for 24 hours. After the overnight incubation, 20 μL of the culture supernatants were collected, followed by addition of 180 μL of QUANTI-Blue (Invivogen) to assess IRF3 activity. The amount of IRF3 activation was assessed by reading the absorbance at 620-655 nm with a microplate reader 2 hours later. The culture supernatant from the untreated THP-1 cells was used as the negative control. To determine the NF-κB activation, another 20 μL of culture supernatant were transferred to a 96-well white plate, followed by addition of 50 μL of Quanti-Luc™ assay solution (Invivogen). The amount of NF-κB activation induced by the test compounds were determined by the luminescence above the untreated control. EC50 determination was performed by fitting the curve of percent control activity versus the log of the compound concentration using the GraphPad Prism 6.0 software.
As usually defined, the EC50 is the midpoint of the concentration-response curve. Read a high EC50 as a need for much substance. `CCn1nc(C)cc1C(=O)Nc1nc2cc(C(N)=O)cc(OCCO)c2n1C/C=C/Cn1c2nc(-c3cc(C)nn3CC)ncc2c2cc(C(N)=O)cc(OCCCOC)c21` [Example 36, (E)-9-(4-(5-carbamoyl-2-(1-ethyl-3-methyl-1H-pyrazole-5-carboxamido)-7-(2-hydroxyethoxy)-1H-benzo[d]imidazol-1-yl)but-2-en-1-yl)-2-(1-ethyl-3-methyl-1H-pyrazol-5-yl)-8-(3-methoxypropoxy)-9H-pyrimido[4,5-b]indole-6-carboxamide]: the EC50 was less than 50 nM. The figure for `CCn1nc(C)cc1C(=O)Nc1nc2cc(C(N)=O)cc(OCCCNC(=O)[C@H](CC(=O)O)NC(=O)[C@H](CC(=O)O)NC(=O)[C@H](CCCNC(=N)N)NC(=O)[C@@H](N)CC(=O)O)c2n1C/C=C/Cn1c2nc(-c3cc(C)nn3CC)ncc2c2cc(C(N)=O)cc(OCCCOC)c21` [Example 37, (6S,9S,12S,15S)-15-amino-1-((5-carbamoyl-1-((E)-4-(6-carbamoyl-2-(1-ethyl-3-methyl-1H-pyrazol-5-yl)-8-(3-methoxypropoxy)-9H-pyrimido[4,5-b]indol-9-yl)but-2-en-1-yl)-2-(1-ethyl-3-methyl-1H-pyrazole-5-carboxamido)-1H-benzo[d]imidazol-7-yl)oxy)-6,9-bis(carboxymethyl)-12-(3-guanidinopropyl)-5,8,11,14-tetraoxo-4,7,10,13-tetraazaheptadecan-17-oic Acid] is 200 to 500 nM; for `CCn1nc(C)cc1C(=O)Nc1nc2cc(C(N)=O)cc(OCCN3CCOCC3)c2n1C/C=C/Cn1c2nc(-c3cc(C)nn3CC)ncc2c2cc(C(N)=O)cc(OCCCOC)c21` [Example 38, (E)-9-(4-(5-carbamoyl-2-(1-ethyl-3-methyl-1H-pyrazole-5-carboxamido)-7-(2-morpholinoethoxy)-1H-benzo[d]imidazol-1-yl)but-2-en-1-yl)-2-(1-ethyl-3-methyl-1H-pyrazol-5-yl)-8-(3-methoxypropoxy)-9H-pyrimido[4,5-b]indole-6-carboxamide] it is 50 to 200 nM; for `CCn1nc(C)cc1C(=O)Nc1nc2cc(C(N)=O)cc(OCCCNC(=O)OCCC(=O)O)c2n1C/C=C/Cn1c2nc(-c3cc(C)nn3CC)ncc2c2cc(C(N)=O)cc(OCCCOC)c21` [Example 39, (E)-3-(((3-((5-carbamoyl-1-(4-(6-carbamoyl-2-(1-ethyl-3-methyl-1H-pyrazol-5-yl)-8-(3-methoxypropoxy)-9H-pyrimido[4,5-b]indol-9-yl)but-2-en-1-yl)-2-(1-ethyl-3-methyl-1H-pyrazole-5-carboxamido)-1H-benzo[d]imidazol-7-yl)oxy)propyl)carbamoyl)oxy)propanoic Acid] it is less than 50 nM. As to `CCn1nc(C)cc1C(=O)Nc1nc2cc(C(N)=O)cc(OCCCNC(=O)OCC(=O)O)c2n1C/C=C/Cn1c2nc(-c3cc(C)nn3CC)ncc2c2cc(C(N)=O)cc(OCCCOC)c21` [Example 40, (E)-2-(((3-((5-carbamoyl-1-(4-(6-carbamoyl-2-(1-ethyl-3-methyl-1H-pyrazol-5-yl)-8-(3-methoxypropoxy)-9H-pyrimido[4,5-b]indol-9-yl)but-2-en-1-yl)-2-(1-ethyl-3-methyl-1H-pyrazole-5-carboxamido)-1H-benzo[d]imidazol-7-yl)oxy)propyl)carbamoyl)oxy)acetic Acid], the EC50 was less than 50 nM. The figure for `CCn1nc(C)cc1C(=O)Nc1nc2cc(C(N)=O)cc(OCCCNC(=O)NCC(=O)O)c2n1C/C=C/Cn1c2nc(-c3cc(C)nn3CC)ncc2c2cc(C(N)=O)cc(OCCCOC)c21` [Example 41, (E)-((3-((5-carbamoyl-1-(4-(6-carbamoyl-2-(1-ethyl-3-methyl-1H-pyrazol-5-yl)-8-(3-methoxypropoxy)-9H-pyrimido[4,5-b]indol-9-yl)but-2-en-1-yl)-2-(1-ethyl-3-methyl-1H-pyrazole-5-carboxamido)-1H-benzo[d]imidazol-7-yl)oxy)propyl)carbamoyl)glycine] is less than 50 nM; for `CCn1nc(C)cc1C(=O)Nc1nc2cc(C(N)=O)cc(OCCCNC(=O)[C@@H](N)CC(=O)O)c2n1C/C=C/Cn1c2nc(-c3cc(C)nn3CC)ncc2c2cc(C(N)=O)cc(OCCCOC)c21` [Example 42, (S,E)-3-amino-4-((3-((5-carbamoyl-1-(4-(6-carbamoyl-2-(1-ethyl-3-methyl-1H-pyrazol-5-yl)-8-(3-methoxypropoxy)-9H-pyrimido[4,5-b]indol-9-yl)but-2-en-1-yl)-2-(1-ethyl-3-methyl-1H-pyrazole-5-carboxamido)-1H-benzo[d]imidazol-7-yl)oxy)propyl)amino)-4-oxobutanoic Acid] it is 50 to 200 nM; for `CCn1nc(C)cc1C(=O)Nc1nc2cc(C(N)=O)cc(OCCCOC(=O)NCCC(=O)O)c2n1C/C=C/Cn1c2nc(-c3cc(C)nn3CC)ncc2c2cc(C(N)=O)cc(OCCCOC)c21` [Example 43, (E)-3-(((3-((5-carbamoyl-1-(4-(6-carbamoyl-2-(1-ethyl-3-methyl-1H-pyrazol-5-yl)-8-(3-methoxypropoxy)-9H-pyrimido[4,5-b]indol-9-yl)but-2-en-1-yl)-2-(1-ethyl-3-methyl-1H-pyrazole-5-carboxamido)-1H-benzo[d]imidazol-7-yl)oxy)propoxy)carbonyl)amino)propanoic Acid] it is less than 50 nM. The result for `CCn1nc(C)cc1C(=O)Nc1nc2cc(C(N)=O)cc(OCCOCCOCCC(=O)O)c2n1C/C=C/Cn1c2nc(-c3cc(C)nn3CC)ncc2c2cc(C(N)=O)cc(OCCCOC)c21` [Example 44, (E)-3-(2-(2-((5-carbamoyl-1-(4-(6-carbamoyl-2-(1-ethyl-3-methyl-1H-pyrazol-5-yl)-8-(3-methoxypropoxy)-9H-pyrimido[4,5-b]indol-9-yl)but-2-en-1-yl)-2-(1-ethyl-3-methyl-1H-pyrazole-5-carboxamido)-1H-benzo[d]imidazol-7-yl)oxy)ethoxy)ethoxy)propanoic Acid] reads less than 50 nM; that for `CCn1nc(C)cc1C(=O)Nc1nc2cc(C(N)=O)cc(OCCCNS(=O)(=O)CCCC(=O)O)c2n1C/C=C/Cn1c2nc(-c3cc(C)nn3CC)ncc2c2cc(C(N)=O)cc(OCCCOC)c21` [Example 45, (E)-4-(N-(3-((5-carbamoyl-1-(4-(6-carbamoyl-2-(1-ethyl-3-methyl-1H-pyrazol-5-yl)-8-(3-methoxypropoxy)-9H-pyrimido[4,5-b]indol-9-yl)but-2-en-1-yl)-2-(1-ethyl-3-methyl-1H-pyrazole-5-carboxamido)-1H-benzo[d]imidazol-7-yl)oxy)propyl)sulfamoyl)butanoic Acid], less than 50 nM; that for `CCn1nc(C)cc1C(=O)Nc1nc2cc(C(N)=O)cc(OC)c2n1C/C=C/Cn1c2nc(-c3cc(C)nn3CC)ncc2c2cc(C(N)=O)cc(OCCCNC(=O)CCCC(=O)O)c21` [Example 46, (E)-5-(3-(6-carbamoyl-9-(4-(5-carbamoyl-2-(1-ethyl-3-methyl-1H-pyrazole-5-carboxamido)-7-methoxy-1H-benzo[d]imidazol-1-yl)but-2-enyl)-2-(1-ethyl-3-methyl-1H-pyrazol-5-yl)-9H-pyrimido[4,5-b]indol-8-yloxy)propylamino)-5-oxopentanoic Acid], less than 50 nM.

For `CCn1nc(C)cc1C(=O)Nc1nc2cc(C(N)=O)cc(OC)c2n1C/C=C/Cn1c2nc(-c3cc(C)nn3CC)ncc2c2cc(C(N)=O)cc(OCCCNC(=O)OCCC(=O)O)c21` [Example 47, (E)-3-(3-(6-carbamoyl-9-(4-(5-carbamoyl-2-(1-ethyl-3-methyl-1H-pyrazole-5-carboxamido)-7-methoxy-1H-benzo[d]imidazol-1-yl)but-2-enyl)-2-(1-ethyl-3-methyl-1H-pyrazol-5-yl)-9H-pyrimido[4,5-b]indol-8-yloxy)propylcarbamoyloxy)propanoic Acid], the EC50 was less than 50 nM. The result for `CCn1nc(C)cc1C(=O)Nc1nc2cc(C(N)=O)cc(OCCCO)c2n1C/C=C/Cn1c2nc(-c3cc(C)nn3CC)ncc2c2cc(C(N)=O)cc(OCCCNC(=O)CCCC(=O)O)c21` [Example 48, (E)-5-(3-(6-carbamoyl-9-(4-(5-carbamoyl-2-(1-ethyl-3-methyl-1H-pyrazole-5-carboxamido)-7-(3-hydroxypropoxy)-1H-benzo[d]imidazol-1-yl)but-2-enyl)-2-(1-ethyl-3-methyl-1H-pyrazol-5-yl)-9H-pyrimido[4,5-b]indol-8-yloxy)propylamino)-5-oxopentanoic Acid] reads less than 50 nM; that for `CCn1nc(C)cc1C(=O)Nc1nc2cc(C(N)=O)cc(OCCCO)c2n1C/C=C/Cn1c2nc(-c3cc(C)nn3CC)ncc2c2cc(C(N)=O)cc(OCCCNC(=O)OCCC(=O)O)c21` [Example 49, (E)-3-(3-(6-carbamoyl-9-(4-(5-carbamoyl-2-(1-ethyl-3-methyl-1H-pyrazole-5-carboxamido)-7-(3-hydroxypropoxy)-1H-benzo[d]imidazol-1-yl)but-2-enyl)-2-(1-ethyl-3-methyl-1H-pyrazol-5-yl)-9H-pyrimido[4,5-b]indol-8-yloxy)propylcarbamoyloxy)propanoic Acid], less than 50 nM. `CCn1nc(C)cc1C(=O)Nc1nc2cc(C(N)=O)cc(OCCCOC)c2n1C/C=C/Cn1c2nc(-c3cc(C)nn3CC)ncc2c2cc(C(N)=O)cc(OCCCNC(=O)CCCC(=O)O)c21` [Example 50, (E)-5-(3-(6-carbamoyl-9-(4-(5-carbamoyl-2-(1-ethyl-3-methyl-1H-pyrazole-5-carboxamido)-7-(3-methoxypropoxy)-1H-benzo[d]imidazol-1-yl)but-2-enyl)-2-(1-ethyl-3-methyl-1H-pyrazol-5-yl)-9H-pyrimido[4,5-b]indol-8-yloxy)propylamino)-5-oxopentanoic Acid]: the EC50 is less than 50 nM.
